Experimental data published in patent US20260356819A1, “OXOISOINDOLINYL-SUBSTITUTED […] DERIVATIVE AND USE THEREOF” (GLUETACS THERAPEUTICS (SHANGHAI) CO., LTD., priority 2023, published 2026).

Experiments:
MV-4-11 cells = test: Inhibition of proliferation of myeloid monocytic leukemia cells MV-4-11 (cell viability assay, 96 h); format: cell-based, human; conditions: read-out: inhibitory activity (IC50) against tumor cells proliferation, MV-4-11
Protocol: (§1) The tumor cells used herein were cultured in a cell culture medium listed in table 2 at 37 °C in an incubator with 5% CO2. Prior to experimentation, all cell lines used were correctly identified by STR profiling, and tested negative for Mycoplasma contamination using a Mycoplasma detection kit through routine screenings.
(§2) The IC50 values of the compounds of the present disclosure (including the compounds in Table 1, and Examples 1-498) were determined using the CellTiter-Meiluncell Luminescent Cell Viability Assay Kit from Dalian Meilun Biotech Co., Ltd. The detailed procedure is as follows: Tumor cells were seeded in 96-well cell culture plates at the densities specified in Table 3. On the following day, the test compounds of the present disclosure were subjected to serial dilution. […] Subsequently, 0.5 μL of the test compound dilution was transferred into the 96-well plate containing the cells, with each well containing 100 μL of cell culture medium. […] Into the 96-well plate, the diluted test compounds and corresponding detection reagents were added, resulting in final test compound concentrations of 500 nM and 10 nM, respectively. The experimental procedure is described below using the diluted 2 μM test compound as an example.
(§3) 0.5 μL of the aforementioned diluted compound of the present disclosure (including the compounds in Table 1, and Examples 1-498) was added to the seeded cells in 100 μL of medium, yielding a final test compound concentration of 10 nM. After the cells were treated with the compounds of the present disclosure for a specified period, the cell viability assay reagent was added to the culture medium according to the kit's instructions to determine cell viability. […] All controls were treated using the same procedure as the compounds of the present disclosure. The growth inhibition curves for the compounds of the present disclosure were plotted using Prism GraphPad software, and the IC50 values were calculated therefrom.

WEE1 = molecular target: T1, WEE1 (Homo sapiens, UniProt P30291+Q96SW2); test: Western blot degradation of WEE1 in hPBMCs (24 h); format: cell-based; conditions: compounds at 50 nM and 500 nM
T1 construct: The supernatant was aspirated as the extracted total cell protein; endogenous in cells; host or cells: human peripheral blood mononuclear cells (hPBMCs)
Method in brief: (§4)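 Western blot densitometry after 24 h treatment of human PBMCs (1×10^6 cells/mL) with 50 nM or 500 nM compound. Remaining target (%) = band intensity over internal-control band, normalized to DMSO; degradation = 1 − remaining; DC50 is the concentration giving half the DMSO band signal.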

IKZF1 = molecular target: T2, IKZF1 (Homo sapiens, UniProt Q13422+Q96SW2); test: Western blot degradation of IKZF1 in hPBMCs (24 h); format: cell-based; conditions: compounds at 50 nM and 500 nM
T2 construct: The supernatant was aspirated as the extracted total cell protein; endogenous in cells; host or cells: human peripheral blood mononuclear cells (hPBMCs)
T2 sequence (Q13422 whole entry): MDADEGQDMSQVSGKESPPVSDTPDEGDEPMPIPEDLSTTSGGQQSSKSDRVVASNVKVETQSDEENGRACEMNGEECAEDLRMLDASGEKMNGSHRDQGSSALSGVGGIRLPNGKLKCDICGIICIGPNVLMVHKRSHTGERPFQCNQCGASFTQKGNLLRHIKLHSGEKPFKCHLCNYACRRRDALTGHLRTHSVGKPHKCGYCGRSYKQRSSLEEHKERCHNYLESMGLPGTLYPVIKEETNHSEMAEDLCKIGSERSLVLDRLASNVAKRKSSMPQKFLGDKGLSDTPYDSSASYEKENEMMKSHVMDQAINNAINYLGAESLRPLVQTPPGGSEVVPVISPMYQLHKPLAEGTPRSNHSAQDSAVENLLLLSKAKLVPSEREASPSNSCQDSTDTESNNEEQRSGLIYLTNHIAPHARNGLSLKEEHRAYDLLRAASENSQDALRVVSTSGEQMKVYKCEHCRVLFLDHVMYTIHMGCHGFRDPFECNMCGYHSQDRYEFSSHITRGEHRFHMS
T2 sequence (Q96SW2 whole entry): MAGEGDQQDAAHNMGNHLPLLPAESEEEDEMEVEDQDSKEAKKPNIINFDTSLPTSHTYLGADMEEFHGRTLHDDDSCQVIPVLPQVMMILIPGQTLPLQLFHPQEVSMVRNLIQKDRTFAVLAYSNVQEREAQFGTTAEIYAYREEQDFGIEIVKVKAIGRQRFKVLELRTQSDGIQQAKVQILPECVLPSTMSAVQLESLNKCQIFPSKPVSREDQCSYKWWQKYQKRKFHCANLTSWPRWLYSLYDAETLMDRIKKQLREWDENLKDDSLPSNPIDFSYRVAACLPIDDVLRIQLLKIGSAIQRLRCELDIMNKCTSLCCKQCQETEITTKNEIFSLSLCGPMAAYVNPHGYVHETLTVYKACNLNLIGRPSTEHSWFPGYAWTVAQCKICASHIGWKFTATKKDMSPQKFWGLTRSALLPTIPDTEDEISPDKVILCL
T2 sequence (Q16531 whole entry partner): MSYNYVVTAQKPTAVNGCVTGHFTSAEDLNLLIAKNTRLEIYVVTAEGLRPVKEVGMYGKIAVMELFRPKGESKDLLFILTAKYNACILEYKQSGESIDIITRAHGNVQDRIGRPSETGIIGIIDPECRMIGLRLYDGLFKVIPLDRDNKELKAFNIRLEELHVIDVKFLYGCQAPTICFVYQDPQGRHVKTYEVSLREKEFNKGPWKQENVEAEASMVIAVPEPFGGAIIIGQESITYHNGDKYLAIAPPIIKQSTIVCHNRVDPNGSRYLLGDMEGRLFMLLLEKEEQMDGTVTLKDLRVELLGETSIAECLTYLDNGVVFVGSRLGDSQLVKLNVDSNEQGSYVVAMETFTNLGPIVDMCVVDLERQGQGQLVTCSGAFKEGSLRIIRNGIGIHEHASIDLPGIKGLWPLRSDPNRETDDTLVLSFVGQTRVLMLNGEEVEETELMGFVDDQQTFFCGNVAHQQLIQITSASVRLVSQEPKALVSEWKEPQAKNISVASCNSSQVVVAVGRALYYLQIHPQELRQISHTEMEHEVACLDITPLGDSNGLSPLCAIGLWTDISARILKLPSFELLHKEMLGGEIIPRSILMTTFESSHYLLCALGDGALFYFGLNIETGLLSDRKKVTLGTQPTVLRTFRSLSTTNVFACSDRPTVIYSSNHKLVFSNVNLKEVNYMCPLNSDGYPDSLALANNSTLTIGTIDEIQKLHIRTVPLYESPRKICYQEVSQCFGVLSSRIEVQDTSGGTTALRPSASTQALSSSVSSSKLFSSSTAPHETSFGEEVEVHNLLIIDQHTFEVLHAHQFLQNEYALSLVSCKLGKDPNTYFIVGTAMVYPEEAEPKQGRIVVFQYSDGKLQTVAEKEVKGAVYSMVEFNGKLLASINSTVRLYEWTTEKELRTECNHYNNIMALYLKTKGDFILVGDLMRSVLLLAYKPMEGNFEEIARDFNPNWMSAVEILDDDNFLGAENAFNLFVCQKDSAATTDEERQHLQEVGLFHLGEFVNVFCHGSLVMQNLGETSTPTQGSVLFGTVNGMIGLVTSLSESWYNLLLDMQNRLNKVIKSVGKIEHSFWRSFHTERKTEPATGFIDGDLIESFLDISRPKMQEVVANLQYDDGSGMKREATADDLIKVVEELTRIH
Method in brief: as §4

IKZF2 = molecular target: T3, IKZF2 (Homo sapiens, UniProt Q96SW2+Q9UKS7); test: Western blot degradation of IKZF2 in hPBMCs (24 h); format: cell-based; conditions: compounds at 50 nM and 500 nM
T3 construct: The supernatant was aspirated as the extracted total cell protein; endogenous in cells; host or cells: human peripheral blood mononuclear cells (hPBMCs)
T3 sequence (Q9UKS7 whole entry): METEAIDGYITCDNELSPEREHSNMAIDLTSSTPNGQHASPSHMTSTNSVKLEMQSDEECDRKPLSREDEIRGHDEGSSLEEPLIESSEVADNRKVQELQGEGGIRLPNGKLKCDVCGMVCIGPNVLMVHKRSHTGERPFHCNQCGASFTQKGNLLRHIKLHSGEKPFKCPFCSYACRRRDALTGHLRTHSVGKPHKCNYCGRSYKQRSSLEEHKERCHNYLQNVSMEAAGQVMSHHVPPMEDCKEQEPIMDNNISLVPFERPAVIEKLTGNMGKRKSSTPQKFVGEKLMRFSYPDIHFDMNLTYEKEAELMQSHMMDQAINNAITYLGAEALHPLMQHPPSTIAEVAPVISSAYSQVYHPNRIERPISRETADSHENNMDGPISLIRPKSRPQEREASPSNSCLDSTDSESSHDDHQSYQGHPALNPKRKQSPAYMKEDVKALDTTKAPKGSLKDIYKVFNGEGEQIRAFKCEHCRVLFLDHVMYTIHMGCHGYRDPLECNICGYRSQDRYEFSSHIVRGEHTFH
T3 sequence (Q96SW2 whole entry): as the sequence (Q96SW2 whole entry) above
T3 sequence (Q16531 whole entry partner): as the sequence (Q16531 whole entry partner) above
Method in brief: as §4

IKZF3 = molecular target: T4, IKZF3 (Homo sapiens, UniProt Q96SW2+Q9UKT9); test: Western blot degradation of IKZF3 in hPBMCs (24 h); format: cell-based; conditions: compounds at 50 nM and 500 nM
T4 construct: The supernatant was aspirated as the extracted total cell protein; endogenous in cells; host or cells: human peripheral blood mononuclear cells (hPBMCs)
T4 sequence (Q9UKT9 whole entry): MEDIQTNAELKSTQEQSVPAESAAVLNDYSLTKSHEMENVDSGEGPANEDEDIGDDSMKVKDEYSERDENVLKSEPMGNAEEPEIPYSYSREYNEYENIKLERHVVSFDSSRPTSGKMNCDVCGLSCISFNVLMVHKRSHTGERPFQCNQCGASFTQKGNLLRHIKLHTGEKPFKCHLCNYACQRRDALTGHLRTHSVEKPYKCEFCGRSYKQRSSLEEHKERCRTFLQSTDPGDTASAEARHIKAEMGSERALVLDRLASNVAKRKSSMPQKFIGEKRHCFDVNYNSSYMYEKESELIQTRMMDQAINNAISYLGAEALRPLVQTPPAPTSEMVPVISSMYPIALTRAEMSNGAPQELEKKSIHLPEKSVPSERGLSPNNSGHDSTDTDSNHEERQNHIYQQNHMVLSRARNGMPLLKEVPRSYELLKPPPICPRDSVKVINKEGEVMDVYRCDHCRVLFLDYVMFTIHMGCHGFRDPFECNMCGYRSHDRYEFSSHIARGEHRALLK
T4 sequence (Q96SW2 whole entry): as the sequence (Q96SW2 whole entry) above
T4 sequence (Q16531 whole entry partner): as the sequence (Q16531 whole entry partner) above
Method in brief: as §4

CK1α = molecular target: T5, CK1α (Homo sapiens, UniProt P48729+Q96SW2); test: Western blot degradation of CK1α in hPBMCs (24 h); format: cell-based; conditions: compounds at 50 nM and 500 nM
T5 construct: The supernatant was aspirated as the extracted total cell protein; endogenous in cells; host or cells: human peripheral blood mononuclear cells (hPBMCs)
T5 sequence (P48729 whole entry): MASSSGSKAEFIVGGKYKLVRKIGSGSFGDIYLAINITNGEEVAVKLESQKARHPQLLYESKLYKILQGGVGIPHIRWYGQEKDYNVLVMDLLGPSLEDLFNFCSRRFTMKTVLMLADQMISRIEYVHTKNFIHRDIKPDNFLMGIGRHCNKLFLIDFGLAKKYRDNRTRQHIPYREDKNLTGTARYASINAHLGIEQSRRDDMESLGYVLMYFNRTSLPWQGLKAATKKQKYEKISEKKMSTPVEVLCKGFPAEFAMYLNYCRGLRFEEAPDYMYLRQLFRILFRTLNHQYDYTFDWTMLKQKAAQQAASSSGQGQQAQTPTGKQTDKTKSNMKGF
T5 sequence (Q96SW2 whole entry): as the sequence (Q96SW2 whole entry) above
T5 sequence (Q16531 whole entry partner): as the sequence (Q16531 whole entry partner) above
Method in brief: as §4

GSPT1 = molecular target: T6, GSPT1 (Homo sapiens, UniProt P15170+Q96SW2); test: Western blot degradation of GSPT1 in hPBMCs (24 h); format: cell-based; conditions: compounds at 50 nM and 500 nM
T6 construct: The supernatant was aspirated as the extracted total cell protein; endogenous in cells; host or cells: human peripheral blood mononuclear cells (hPBMCs)
T6 sequence (P15170 whole entry): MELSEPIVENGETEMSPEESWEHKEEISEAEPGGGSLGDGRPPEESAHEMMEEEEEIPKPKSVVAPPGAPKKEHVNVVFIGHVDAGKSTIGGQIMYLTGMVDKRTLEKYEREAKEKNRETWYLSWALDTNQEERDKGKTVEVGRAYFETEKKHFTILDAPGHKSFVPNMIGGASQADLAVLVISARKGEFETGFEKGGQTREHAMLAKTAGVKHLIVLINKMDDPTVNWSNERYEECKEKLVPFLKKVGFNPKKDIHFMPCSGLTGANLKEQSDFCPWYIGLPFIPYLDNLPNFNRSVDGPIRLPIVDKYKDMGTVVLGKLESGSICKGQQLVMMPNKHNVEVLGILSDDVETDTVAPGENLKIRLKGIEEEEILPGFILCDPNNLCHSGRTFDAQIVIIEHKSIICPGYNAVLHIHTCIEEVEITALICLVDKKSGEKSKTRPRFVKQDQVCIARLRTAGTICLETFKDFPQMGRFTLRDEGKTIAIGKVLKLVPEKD
T6 sequence (Q96SW2 whole entry): as the sequence (Q96SW2 whole entry) above
T6 sequence (Q16531 whole entry partner): as the sequence (Q16531 whole entry partner) above
Method in brief: as §4

MM.1S cells = test: Inhibition of proliferation of multiple myeloma cells MM.1S (cell viability assay, 96 h); format: cell-based, human; conditions: read-out: inhibitory activity (IC50) against tumor cells proliferation, MM.1S
Jurkat cells = test: Inhibition of proliferation of T lymphocytic leukemia cells Jurkat (cell viability assay, 96 h); format: cell-based, human; conditions: read-out: inhibitory activity (IC50) against tumor cells proliferation, Jurkat
Protocol: as §1, §2, §3

SMILES	IC50 (MV-4-11 cells) [nM]	WEE1 substrate protein remaining % (WEE1)	IKZF1 substrate protein remaining % (IKZF1)	IKZF2 substrate protein remaining % (IKZF2)	IKZF3 substrate protein remaining % (IKZF3)	CK1α substrate protein remaining % (CK1α)	GSPT1 substrate protein remaining % (GSPT1)	IC50 (MM.1S cells) [nM]	IC50 (Jurkat cells) [nM]
O=C1CCN(N2Cc3cc(CN4CCN(c5ccccc5)CC4)ccc3C2=O)C(=O)N1 [GT-06696, 1-(1-oxo-5-((4-phenylpiperazin-1-yl)methyl)isoindolin-2-yl)dihydropyrimidine-2,4(1H,3H)-dione]	100 to 300	B (80%< substrate protein remaining % ≤100%)	B (80%< substrate protein remaining % ≤100%)	B (80%< substrate protein remaining % ≤100%)	B (80%< substrate protein remaining % ≤100%)	B (80%< substrate protein remaining % ≤100%)	A (0% ≤ substrate protein remaining % ≤80%)	–	–
O=C1CCN(N2Cc3cc(CN4CCN(c5cccc(Br)c5)CC4)ccc3C2=O)C(=O)N1 [GT-06698, 1-(5-((4-(3-bromophenyl)piperazin-1-yl)methyl)-1-oxoisoindolin-2-yl)dihydropyrimidine-2,4(1H,3H)-dione]	100 to 300	B (80%< substrate protein remaining % ≤100%)	B (80%< substrate protein remaining % ≤100%)	B (80%< substrate protein remaining % ≤100%)	B (80%< substrate protein remaining % ≤100%)	B (80%< substrate protein remaining % ≤100%)	A (0% ≤ substrate protein remaining % ≤80%)	–	–
COc1cccc(N2CCN(Cc3ccc4c(c3)CN(N3CCC(=O)NC3=O)C4=O)CC2)c1 [GT-06699, 1-(5-((4-(3-methoxyphenyl)piperazin-1-yl)methyl)-1-oxoisoindolin-2-yl)dihydropyrimidine-2,4(1H,3H)-dione]	100 to 300	B (80%< substrate protein remaining % ≤100%)	B (80%< substrate protein remaining % ≤100%)	B (80%< substrate protein remaining % ≤100%)	B (80%< substrate protein remaining % ≤100%)	B (80%< substrate protein remaining % ≤100%)	A (0% ≤ substrate protein remaining % ≤80%)	–	–
O=C1CCN(N2Cc3cc(CN4CCN(c5ccc(C(F)(F)F)cc5)CC4)ccc3C2=O)C(=O)N1 [GT-06700, 1-(1-oxo-5-((4-(4-(trifluoromethyl)phenyl)piperazin-1-yl)methyl)isoindolin-2-yl)dihydropyrimidine-2,4(1H,3H)-dione]	50 to 100	–	–	–	–	–	–	–	–
O=C1CCN(N2Cc3cc(CN4CCN(c5ccc(F)cc5)CC4)ccc3C2=O)C(=O)N1 [GT-06702, 1-(5-((4-(4-fluorophenyl)piperazin-1-yl)methyl)-1-oxoisoindolin-2-yl)dihydropyrimidine-2,4(1H,3H)-dione]	500 to 1000	B (80%< substrate protein remaining % ≤100%)	B (80%< substrate protein remaining % ≤100%)	B (80%< substrate protein remaining % ≤100%)	B (80%< substrate protein remaining % ≤100%)	A (0% ≤ substrate protein remaining % ≤80%)	A (0% ≤ substrate protein remaining % ≤80%)	–	–
O=C1CCN(N2Cc3cc(CN4CCN(c5ccccc5Cl)CC4)ccc3C2=O)C(=O)N1 [GT-06703, 1-(5-((4-(2-chlorophenyl)piperazin-1-yl)methyl)-1-oxoisoindolin-2-yl)dihydropyrimidine-2,4(1H,3H)-dione]	500 to 1000	B (80%< substrate protein remaining % ≤100%)	B (80%< substrate protein remaining % ≤100%)	B (80%< substrate protein remaining % ≤100%)	B (80%< substrate protein remaining % ≤100%)	A (0% ≤ substrate protein remaining % ≤80%)	A (0% ≤ substrate protein remaining % ≤80%)	–	–
O=C1CCN(N2Cc3cc(CN4CCN(c5ccc(Cl)cc5)CC4)ccc3C2=O)C(=O)N1 [GT-06765, 1-(5-((4-(4-chlorophenyl)piperazin-1-yl)methyl)-1-oxoisoindolin-2-yl)dihydropyrimidine-2,4(1H,3H)-dione]	500 to 1000	B (80%< substrate protein remaining % ≤100%)	B (80%< substrate protein remaining % ≤100%)	B (80%< substrate protein remaining % ≤100%)	B (80%< substrate protein remaining % ≤100%)	A (0% ≤ substrate protein remaining % ≤80%)	B (80%< substrate protein remaining % ≤100%)	–	–
O=C1CCN(N2Cc3cc(CN4CCN(c5ccccc5Br)CC4)ccc3C2=O)C(=O)N1 [GT-06766, 1-(5-((4-(2-bromophenyl)piperazin-1-yl)methyl)-1-oxoisoindolin-2-yl)dihydropyrimidine-2,4(1H,3H)-dione]	500 to 1000	A (0% ≤ substrate protein remaining % ≤80%)	A (0% ≤ substrate protein remaining % ≤80%)	A (0% ≤ substrate protein remaining % ≤80%)	A (0% ≤ substrate protein remaining % ≤80%)	A (0% ≤ substrate protein remaining % ≤80%)	A (0% ≤ substrate protein remaining % ≤80%)	–	–
O=C1CCN(N2Cc3cc(CN4CCN(c5cc(Cl)ccc5Cl)CC4)ccc3C2=O)C(=O)N1 [GT-06773, 1-(5-((4-(2,5-dichlorophenyl)piperazin-1-yl)methyl)-1-oxoisoindolin-2-yl)dihydropyrimidine-2,4(1H,3H)-dione]	100 to 300	A (0% ≤ substrate protein remaining % ≤80%)	B (80%< substrate protein remaining % ≤100%)	A (0% ≤ substrate protein remaining % ≤80%)	A (0% ≤ substrate protein remaining % ≤80%)	A (0% ≤ substrate protein remaining % ≤80%)	A (0% ≤ substrate protein remaining % ≤80%)	–	–
O=C1CCN(N2Cc3cc(CN4CCN(c5cccc(F)c5F)CC4)ccc3C2=O)C(=O)N1 [GT-06777, 1-(5-((4-(2,3-difluorophenyl)piperazin-1-yl)methyl)-1-oxoisoindolin-2-yl)dihydropyrimidine-2,4(1H,3H)-dione]	300 to 500	A (0% ≤ substrate protein remaining % ≤80%)	B (80%< substrate protein remaining % ≤100%)	A (0% ≤ substrate protein remaining % ≤80%)	B (80%< substrate protein remaining % ≤100%)	A (0% ≤ substrate protein remaining % ≤80%)	A (0% ≤ substrate protein remaining % ≤80%)	–	–
O=C1CCN(N2Cc3cc(CN4CC=C(c5cccc6c(F)cccc56)CC4)ccc3C2=O)C(=O)N1 [GT-07590, 1-(5-((4-(5-fluoronaphthalen-1-yl)-3,6-dihydropyridin-1(2H)-yl)methyl)-1-oxoisoindolin-2-yl)dihydropyrimidine-2,4(1H,3H)-dione]	–	A (0% ≤ substrate protein remaining % ≤80%)	A (0% ≤ substrate protein remaining % ≤80%)	A (0% ≤ substrate protein remaining % ≤80%)	A (0% ≤ substrate protein remaining % ≤80%)	B (80%< substrate protein remaining % ≤100%)	A (0% ≤ substrate protein remaining % ≤80%)	10 to 50	50 to 100
